Measured values published in article PMC11783601, “Analogue-Sensitive Inhibition of Histone Demethylases Uncovers Member-Specific Function in Ribosomal Protein Synthesis” (Journal of the American Chemical Society, 2025).
“Also recorded” adds a separate entry of the source.

What was measured:
Assay in all cases: H3K9me3 Western blot of nuclear extracts of transfected HEK293T cells
Format in all cases: cell-based
full-length KDM4C-F187A = biological target: T1, full-length KDM4C-F187A (Homo sapiens, UniProt Q9H3R0, F187A); settings: 25-200 µM
T1 construct: we generated the full-length as mutants of the remaining KDM4s; host or cells: HEK293T
T1 sequence (Q9H3R0 whole entry F187A): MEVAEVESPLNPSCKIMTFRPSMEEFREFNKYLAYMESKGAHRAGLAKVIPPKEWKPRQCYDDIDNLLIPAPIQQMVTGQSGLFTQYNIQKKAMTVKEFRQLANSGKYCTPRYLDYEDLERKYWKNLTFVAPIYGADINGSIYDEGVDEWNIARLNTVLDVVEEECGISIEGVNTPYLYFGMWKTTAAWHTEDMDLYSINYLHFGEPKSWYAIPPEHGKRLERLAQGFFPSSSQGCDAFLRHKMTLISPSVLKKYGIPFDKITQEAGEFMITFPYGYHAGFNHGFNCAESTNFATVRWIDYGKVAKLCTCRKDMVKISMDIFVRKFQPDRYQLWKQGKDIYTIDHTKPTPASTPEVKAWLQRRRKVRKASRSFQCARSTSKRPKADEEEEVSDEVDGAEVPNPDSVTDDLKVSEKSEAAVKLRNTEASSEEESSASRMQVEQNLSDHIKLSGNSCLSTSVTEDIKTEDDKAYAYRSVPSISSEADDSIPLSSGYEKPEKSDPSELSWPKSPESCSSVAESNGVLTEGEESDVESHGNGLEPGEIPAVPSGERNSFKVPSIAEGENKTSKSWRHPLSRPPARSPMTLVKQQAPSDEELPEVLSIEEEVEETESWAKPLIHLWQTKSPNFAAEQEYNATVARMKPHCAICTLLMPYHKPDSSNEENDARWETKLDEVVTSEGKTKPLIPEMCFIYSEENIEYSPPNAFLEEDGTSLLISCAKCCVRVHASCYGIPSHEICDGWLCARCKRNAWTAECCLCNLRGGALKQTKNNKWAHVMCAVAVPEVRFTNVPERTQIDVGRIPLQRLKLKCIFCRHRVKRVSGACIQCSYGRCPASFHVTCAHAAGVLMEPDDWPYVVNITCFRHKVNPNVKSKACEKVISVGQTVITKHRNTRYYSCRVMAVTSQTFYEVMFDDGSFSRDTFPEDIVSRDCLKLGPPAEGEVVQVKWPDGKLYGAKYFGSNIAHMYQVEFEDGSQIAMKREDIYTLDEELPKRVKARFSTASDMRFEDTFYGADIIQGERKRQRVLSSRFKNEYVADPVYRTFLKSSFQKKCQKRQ
Source text: (§1) KDM4B and C are structurally homologous to KDM4A, and KDM4D and E have a catalytic pocket near-identical to that of KDM4A but lack the Tudor and PHD domains known to bind trimethylated lysine in histones (Figure 1B).[11] HEK293T cells were transfected with full-length wild type KDM4B-E or their respective mutants. Western blot analysis of nuclear preparations using the H3K9me3 antibody confirmed all of the proteins to be catalytically active (Figures 4G–N and S32–S35).
(§2) KDM4A mammalian expression plasmid in CMV vector was purchased from Addgene (plasmid #24180). KDM4B mammalian expression plasmid in CMV vector was purchased from Addgene (plasmid #24181). KDM4C mammalian expression plasmid in CMV vector was purchased from Addgene (plasmid #24214). KDM4D mammalian expression plasmid in pReciever vector was purchased from Genecopoia (EX-Z0917-M06.) KDME mammalian expression plasmid in pRP-EXP was designed from Vector Builder. The KDM4A-F185A, KDM4B-F186A, KDM4C -F187A, KDM4D-F189A, and KDM4E F186A mutants were generated using Quikchange Lightening Mutagenesis Kit (Agilent) according to manufacturer’s protocol and confirmed by Sanger […]
(§3) HEK293T/17 cells (ATCC) were grown in Delbucco’s Modified Eagle Medium (DMEM) (Corning) with 10% FBS at 37 °C (Corning), 5% CO2, and 95% relative humidity in a 6-well cell culture plate. When cells reached 90% confluency, 3 µg of plasmid and 6 µg lipofectamine 2000 (Invitrogen: 11668019) were incubated with 100 µL OptiMem. After 5 minutes the plasmid and lipofectamine were combined and incubated at room temperature for 20 minutes and added to the cell culture disk. Cells were returned to the incubator to grow for 4-6 hours. This was followed by treatment of compound treatment (n-octyl IOX121,22 or a specific NOG ester) at indicated concentrations and further culture for specified time. The media was removed, and cells were washed with ice cold PBS (Corning), then trypsinized with TrpLE Express (Gibco). The trypsinization reaction was quenched with DMEM 10% FBS and cells were pelleted then washed once with ice cold PBS. The nuclear extracts were generated by first resuspending the cell pellets in 700 µL nuclear isolation buffer (15 mM Tris pH 7.5, 60 mM KCl, 15 mM NaCl, 5 mM MgCl2, 1 mM CaCl2, 1mm DTT, 2 mM Na3Van, 250 mM sucrose, 1X Pierce protease inhibitor (Thermo Fisher #PIA32955), 1 mM PMSF, 0.3% NP40 diluted to volume with MilliQ H2O) and incubated on ice for 5 minutes.23 The samples were then pelleted by centrifugation at 2000 rcf for 5 minutes.
(§4) The supernatant was removed, and the pelleted nuclei were resuspended in 200 µL Pierce IP lysis buffer (Thermo Fisher #87787) containing 1X Pierce protease inhibitor and left on ice for 5 minutes. The nuclei were then sonicated at 100% amp for 5 minutes (pulsed 1 minute “on”, 20 seconds “rest”) using a Qsonica-Q700, cuphorn sonicator. The samples were pelleted once again at 2000 rcf for 5 minutes and the supernatant containing the nuclear extracts were collected. MgCl2 (1M) solution was added to each sample give a final concentration of 6mM. […]
(§5) Prism with the corresponding bars representing the mean and standard deviation of the population.
(§6) For the time dependent imaging, cells containing the transfected KDM4A mutant were identified by their HA signal. These cells were used to create a selection which was then imposed onto the respective H3K9me3 or BrdU images. The mean signal was then measured for H3K9me3 or BrdU only within the cells expressing the KDM4A mutant. To compare changes in H3K9me3 or BrdU between trials, the quantification values were normalized to the mean signal at t=0. The normalized, mean signal and error for H3K9me3 or BrdU were then plotted in GraphPad Prism.
(§7) 21. General protocol for Western blotting
(§8) Assay samples were mixed with appropriate volume of 4X Laemmli Dye (Bio-Rad), heated at 95 °C for 5 minutes and loaded onto 4–12% Criterion™ XT Bis-Tris protein gels (Bio-Rad #3450123) or in-house prepared SDS-polyacrylamide gel and subjected to electrophoresis […]

full-length KDM4E-F186A = biological target: T2, full-length KDM4E-F186A (Homo sapiens, UniProt B2RXH2, F186A); settings: 25-200 µM
T2 construct: we generated the full-length as mutants of the remaining KDM4s; host or cells: HEK293T
T2 sequence (B2RXH2 whole entry F186A): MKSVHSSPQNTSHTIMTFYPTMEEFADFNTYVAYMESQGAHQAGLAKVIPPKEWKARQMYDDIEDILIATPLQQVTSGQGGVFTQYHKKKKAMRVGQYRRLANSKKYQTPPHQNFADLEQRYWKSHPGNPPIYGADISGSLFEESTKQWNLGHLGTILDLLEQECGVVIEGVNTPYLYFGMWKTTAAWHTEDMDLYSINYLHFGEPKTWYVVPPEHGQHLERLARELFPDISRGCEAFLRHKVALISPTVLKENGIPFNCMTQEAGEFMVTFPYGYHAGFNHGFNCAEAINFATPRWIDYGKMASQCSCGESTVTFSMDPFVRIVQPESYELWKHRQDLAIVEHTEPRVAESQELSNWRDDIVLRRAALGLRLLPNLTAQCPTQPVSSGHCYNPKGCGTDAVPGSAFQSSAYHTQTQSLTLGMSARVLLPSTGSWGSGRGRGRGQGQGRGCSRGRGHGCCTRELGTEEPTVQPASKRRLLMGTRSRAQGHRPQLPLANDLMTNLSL
Source text: as §1, §2, §3, §4, §5, §6, §7, §8

full-length KDM4D-F189A = biological target: T3, full-length KDM4D-F189A (Homo sapiens, UniProt Q6B0I6, F189A); settings: 25-200 µM
T3 construct: we generated the full-length as mutants of the remaining KDM4s; host or cells: HEK293T
T3 sequence (Q6B0I6 whole entry F189A): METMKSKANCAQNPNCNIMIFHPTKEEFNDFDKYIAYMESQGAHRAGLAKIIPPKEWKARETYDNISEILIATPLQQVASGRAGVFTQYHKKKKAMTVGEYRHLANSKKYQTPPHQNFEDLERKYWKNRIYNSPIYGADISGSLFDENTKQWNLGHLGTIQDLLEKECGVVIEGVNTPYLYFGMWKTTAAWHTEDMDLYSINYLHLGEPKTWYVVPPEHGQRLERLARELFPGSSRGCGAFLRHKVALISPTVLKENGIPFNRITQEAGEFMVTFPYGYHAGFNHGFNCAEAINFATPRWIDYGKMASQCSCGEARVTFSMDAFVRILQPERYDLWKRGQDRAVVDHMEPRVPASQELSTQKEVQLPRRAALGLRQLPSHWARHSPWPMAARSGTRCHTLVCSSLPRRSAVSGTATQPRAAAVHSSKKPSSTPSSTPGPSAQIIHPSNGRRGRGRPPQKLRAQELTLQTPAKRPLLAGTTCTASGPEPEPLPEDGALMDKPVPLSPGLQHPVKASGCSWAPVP
Source text: as §1, §2, §3, §4, §5, §6, §7, §8

full-length KDM4B-F186A = biological target: T4, full-length KDM4B-F186A (Homo sapiens, UniProt O94953, F186A); settings: for inhibition of KDM4B-F186A (asKDM4B) H3K9me3 demethylation: 10 μM concentration; for inhibition of KDM4B-F186A H3K9me3 demethylation, dose-dependent: 10, 20 µM
T4 construct: we generated the full-length as mutants of the remaining KDM4s; host or cells: HEK293T
T4 sequence (O94953 1-1096 F186A): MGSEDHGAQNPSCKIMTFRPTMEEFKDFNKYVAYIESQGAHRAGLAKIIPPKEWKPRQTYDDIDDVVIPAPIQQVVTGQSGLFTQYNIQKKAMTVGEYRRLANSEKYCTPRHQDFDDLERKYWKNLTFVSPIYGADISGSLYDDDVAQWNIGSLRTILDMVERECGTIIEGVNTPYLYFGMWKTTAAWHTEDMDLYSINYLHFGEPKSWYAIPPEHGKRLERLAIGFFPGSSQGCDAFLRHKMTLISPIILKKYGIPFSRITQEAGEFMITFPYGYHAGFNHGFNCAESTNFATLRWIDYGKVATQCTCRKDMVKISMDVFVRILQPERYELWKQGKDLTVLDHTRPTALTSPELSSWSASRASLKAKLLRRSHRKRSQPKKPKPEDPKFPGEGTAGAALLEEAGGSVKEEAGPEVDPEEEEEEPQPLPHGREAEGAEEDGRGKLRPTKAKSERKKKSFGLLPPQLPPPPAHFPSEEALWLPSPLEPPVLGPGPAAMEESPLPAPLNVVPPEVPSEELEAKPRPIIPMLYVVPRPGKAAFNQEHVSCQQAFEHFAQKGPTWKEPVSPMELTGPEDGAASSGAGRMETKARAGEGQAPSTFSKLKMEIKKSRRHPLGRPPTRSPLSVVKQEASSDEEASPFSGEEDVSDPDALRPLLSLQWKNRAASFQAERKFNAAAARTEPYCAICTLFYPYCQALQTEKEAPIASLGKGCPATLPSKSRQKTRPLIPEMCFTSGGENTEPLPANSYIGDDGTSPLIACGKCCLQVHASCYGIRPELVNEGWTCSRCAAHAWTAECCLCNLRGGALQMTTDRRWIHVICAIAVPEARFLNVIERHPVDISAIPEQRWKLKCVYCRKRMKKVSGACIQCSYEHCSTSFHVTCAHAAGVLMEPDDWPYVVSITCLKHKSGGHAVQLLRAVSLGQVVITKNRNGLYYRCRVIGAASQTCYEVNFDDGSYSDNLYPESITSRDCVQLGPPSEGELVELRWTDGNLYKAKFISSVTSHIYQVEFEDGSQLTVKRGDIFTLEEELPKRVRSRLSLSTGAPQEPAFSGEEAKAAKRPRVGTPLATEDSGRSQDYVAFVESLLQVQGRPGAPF
Source text: as §1, §2, §3, §4, §5, §6, §7, §8

Compound	inhibition of KDM4C-F187A H3K9me3 demethylation (full-length KDM4C-F187A)	inhibition of KDM4E-F186A H3K9me3 demethylation (full-length KDM4E-F186A)	inhibition of KDM4D-F189A H3K9me3 demethylation (full-length KDM4D-F189A)	inhibition of KDM4B-F186A (asKDM4B) H3K9me3 demethylation (full-length KDM4B-F186A)	inhibition of KDM4B-F186A H3K9me3 demethylation, dose-dependent (full-length KDM4B-F186A)
CCCCCCCCOC(=O)C(=O)NC(CC(C)C)C(=O)O [6A, L-Leu octyl-ester NOG]	Dose-dependent inhibition; also recorded: significantly reduced	Dose-dependent inhibition; also recorded: significantly reduced	Dose-dependent inhibition; also recorded: significantly reduced	robust inhibition	Dose-dependent inhibition; also recorded: significantly reduced
CC(C)CC(NC(=O)C(=O)OCc1cccc(C(F)(F)F)c1)C(=O)O [6B, L-Leu TFMB-ester NOG]	significantly reduced	significantly reduced	Inhibition; also recorded: significantly reduced	robust inhibition	Dose-dependent inhibition; also recorded: significantly reduced
